The source of these data is patent US20230293708A1, “CONJUGATE OF SAPONIN AND SINGLE-DOMAIN ANTIBODY, PHARMACEUTICAL COMPOSITION COMPRISING SAID CONJUGATE, THERAPEUTIC USE THEREOF” (SAPREME TECHNOLOGIES B.V., priority 2020, published 2023).

Where two headings read alike, the source gives them in different places.

Holding throughout (experiment): Cell viability (MTS) assay, cell killing
What all share (assay type): cell-based, human

One assay deals with CaSki cells. The procedure:
(§1) Cells were seeded in a 96 well plate at 5.000-10.000 c/w in 100 μL/well and incubated overnight at 37° C. […] The media was removed from the cell culture plate and replaced by 180 μL culture media, followed by the addition of 20 μL treatment-mix/well. […] In the case that endosomal acidification inhibitors (chloroquine (Sigma Aldrich) or bafilomycin A1 (Enzo Life Sciences)) were used, the cell culture media in step 1 of treatment was replaced by 180 μL media containing 1 μM chloroquine or 0.2 μM bafilomycin A1. The plate was incubated for 1 hour at 37° C., before the 10× treatment-mix samples were added. The remaining incubation and treatment steps were performed according to standard procedures known in the field.
(§2) After treatment the cells were incubated for 72 hr at 37° C. before the cell viability was determined by a MTS-assay, performed according to the manufacturer's instruction (CellTiter 96® AQueous One Solution Cell Proliferation Assay, Promega). Briefly, the MTS solution was diluted 20× in DMEM without phenol red (PAN-Biotech GmbH) supplemented with 10% FBS (PAN-Biotech GmbH). The cells were washed once with 200 μL PBS per well, after which 100 μL diluted MTS solution was added per well. The plate was incubated for approximately 20-30 minutes at 37° C. Subsequently, the optical density at 492 nm was measured on a Thermo Scientific Multiskan FC plate reader (Thermo Scientific). For quantification the background signal of ‘medium only’ wells was subtracted from all other wells, before the ratio of […].

A further assay relates to A431 cells. The procedure: (§3) After treatment the cells were incubated for 72 hr at 37° C. before the cell viability was determined by a MTS-assay, performed according to the manufacturer's instruction (CellTiter 96® AQueous One Solution Cell Proliferation Assay, Promega). Briefly, the MTS solution was diluted 20× in DMEM without phenol red (PAN-Biotech GmbH) supplemented with 10% FBS. The cells were washed once with 200 μL/PBS well, after which 100 μL diluted MTS solution was added/well. The plate was incubated for approximately 20-30 minutes at 37° C. Subsequently, the OD at 492 nm was measured on a Thermo Scientific Multiskan FC plate reader (Thermo Scientific). For quantification the background signal of ‘medium only’ wells was subtracted from all other wells, before the cell viability percentage of treated/untreated cells was calculated, by dividing the background corrected signal of treated wells over the background corrected signal of the untreated wells (×100).
(§4) Cells were seeded in a 96 well plate at 5.000-10.000 c/w in 100 μL/well and incubated overnight at 37° C. […] The media was removed from the cell culture plate and replaced by 180 μL culture media, followed by the addition of 20 μL treatment-mix/well. […]
as §2, with “Briefly, the MTS solution was diluted 20× in DMEM without phenol red (PAN-Biotech GmbH) supplemented with 10% FBS (PAN-Biotech GmbH). The cells were washed once with 200 μL PBS per well, after which 100 μL diluted MTS solution was added per well. The plate was incubated for approximately 20-30 minutes at 37° C.” left out

The next assay deals with SK-BR-3 cells. Particulars: read-out: IC50 (calculated on concentration SO1861), + fixed 1.5 pM EGF-dianthin. The procedure:
as §3, §4
as §2, with “Briefly, the MTS solution was diluted 20× in DMEM without phenol red (PAN-Biotech GmbH) supplemented with 10% FBS (PAN-Biotech GmbH). The cells were washed once with 200 μL PBS per well, after which 100 μL diluted MTS solution was added per well. The plate was incubated for approximately 20-30 minutes at 37° C.” left out

The next assay relates to HeLa cells. Particulars: + 1500 nM SO1861 (unconjugated). The procedure: as §1, §2
The test system of another assay is JIMT-1 cells. The following applies: + 1500 nM SO1861 (unconjugated). The procedure:
as §1, §2

The mark [1] stands for this setting: read-out: IC50 (calculated on concentration SO1861), SO1861 or mAb-SO1861 titrated + fixed 50 pM trastuzumab-saporin.

With `CC(=O)O[C@H]1[C@H](O[C@@H]2OC[C@@H](O)[C@H](O)[C@H]2O)[C@@H](O)[C@H](O[C@@H]2[C@H](O)[C@@H](O[C@@H]3O[C@@H](C)[C@H](O[C@@H]4OC[C@@H](O)[C@H](O[C@@H]5OC[C@@H](O)[C@H](O)[C@H]5O)[C@H]4O)[C@@H](O)[C@H]3O)[C@H](OC(=O)[C@]34CCC(C)(C)C[C@H]3C3=CC[C@@H]5[C@@]6(C)CC[C@H](O[C@H]7O[C@H](C(=O)O)[C@@H](O)[C@H](O[C@@H]8OC[C@@H](O)[C@H](O)[C@H]8O)[C@H]7O[C@@H]7O[C@H](CO)[C@H](O)[C@H](O)[C@H]7O)[C@@](C)(C=O)[C@@H]6CC[C@@]5(C)[C@]3(C)C[C@H]4O)O[C@@H]2C)O[C@@H]1C` [SO1861], the IC50 in the assay on CaSki cells (setting [1]) was at least 1000 nM; with A431 cells (read-out: IC50 (calculated on concentration SO1861), + fixed 10 pM cetuximab-saporin), 600 nM; with A431 cells (setting [1]), at least 1000 nM; in the assay on SK-BR-3 cells, 800 nM.

In the case of Saporin, the IC50 turned out to be 0.03 nM in the assay on HeLa cells; 0.03 nM in the assay on JIMT-1 cells; 0.015 nM with CaSki cells (+ 1500 nM SO1861 (unconjugated), read-out: IC50).
